Assay results taken from patent publication US7750047B2, “Modulators (inhibitors/activators) of histone acetyltransferases” (Jawaharlal Nehru Centre for Advanced Scientific Research, priority 2002, dated 2010).
Read-outs that look alike come from different tables or passages of the source. One block for each compound: values may come before it.

Columns and labels:
[1] = test system: histone acetyltransferases; assay: HAT inhibition test of salicylic acid and benzoic acid; type: biochemical
Experimental: (§1) HAT assays were performed as described elsewhere (12). Briefly, indicated amounts of proteins/peptide were incubated in HAT-assay buffer containing 50 Mm Tris-HCl, Ph 8.0, 10% (v/v) glycerol, 1 Mm dithiothreitol, 1 Mm phenylmethyl sulfonyl fluoride, 0.1 Mm EDTA, Ph 8.0, 10 Mm sodium butyrate at 30° C. for 10 min in presence or absence of compound followed by the addition of 1 pi of 6.2 Ci/mmol [^3H]-acetyl Coenzyme A (acetyl-CoA) and were further incubated for another 10 min. The final reaction volume was 30 ul. The reaction mixture was then blotted onto P-81 (Whatman) filter papers and radioactive counts were recorded on a Wallac 1409 liquid scintillation counter.

PCAF = target: T1, PCAF (Homo sapiens, UniProt Q92831); assay: HAT assay (filter binding) with PCAF and core histones; type: biochemical
T1 construct: FLAG; made in house; host or cells: insect cell line (printed 'Si 217', probably Sf21), recombinant baculovirus
From the text: (§2) B: Biochemical Methods: Purification of Human Core Histones and Recombinant Proteins-Human core histones were purified from HeLa nuclear pellet as described previously (12). The FLAG epitope tagged Human Topoisomerase I, histone deacetylase 1 (HDAC1) and PCAF, were purified from the recombinant baculovirus infected insect cell line, Si 217 by the immunoaffinity purification using M2-agarose (SIGMA)(13). Full-length p300 was also purified from the recombinant baculovirus infected Sf21 cells as a His6-tagged protein through the Ni-NTA affinity column (Qiagen) as described previously (12). The His6-tagged nucleosome assembly protein 1 (NAP1), used for the in vitro chromatin assembly was purified from E. coli cells as previously reported (12) and the FLAG-tagged chimeric activator Ga14-VP16, expressed in E. coli and purified by immunoaffinity purification with M2 agarose. Human positive transcriptional coactivator, PC4, was expressed in E. coli and purified as described earlier (14).
HAT assays were performed as described elsewhere (12). […] The reaction mixture was then blotted onto P-81 (Whatman) filter papers and radioactive counts were recorded on a Wallac 1409 liquid scintillation counter.

p300 [2] = target: T2, p300 (Homo sapiens, UniProt Q09472); assay: HAT assay (filter binding) with p300 and core histones; type: biochemical; set-up: Full-length p300 was also purified from the recombinant baculovirus infected Sf21 cells as a His6-tagged protein; His6; made in house; host or cells: Sf21 insect cells (recombinant baculovirus)
From the text: as §2, §1
Target sequence in this assay (Q09472 whole entry): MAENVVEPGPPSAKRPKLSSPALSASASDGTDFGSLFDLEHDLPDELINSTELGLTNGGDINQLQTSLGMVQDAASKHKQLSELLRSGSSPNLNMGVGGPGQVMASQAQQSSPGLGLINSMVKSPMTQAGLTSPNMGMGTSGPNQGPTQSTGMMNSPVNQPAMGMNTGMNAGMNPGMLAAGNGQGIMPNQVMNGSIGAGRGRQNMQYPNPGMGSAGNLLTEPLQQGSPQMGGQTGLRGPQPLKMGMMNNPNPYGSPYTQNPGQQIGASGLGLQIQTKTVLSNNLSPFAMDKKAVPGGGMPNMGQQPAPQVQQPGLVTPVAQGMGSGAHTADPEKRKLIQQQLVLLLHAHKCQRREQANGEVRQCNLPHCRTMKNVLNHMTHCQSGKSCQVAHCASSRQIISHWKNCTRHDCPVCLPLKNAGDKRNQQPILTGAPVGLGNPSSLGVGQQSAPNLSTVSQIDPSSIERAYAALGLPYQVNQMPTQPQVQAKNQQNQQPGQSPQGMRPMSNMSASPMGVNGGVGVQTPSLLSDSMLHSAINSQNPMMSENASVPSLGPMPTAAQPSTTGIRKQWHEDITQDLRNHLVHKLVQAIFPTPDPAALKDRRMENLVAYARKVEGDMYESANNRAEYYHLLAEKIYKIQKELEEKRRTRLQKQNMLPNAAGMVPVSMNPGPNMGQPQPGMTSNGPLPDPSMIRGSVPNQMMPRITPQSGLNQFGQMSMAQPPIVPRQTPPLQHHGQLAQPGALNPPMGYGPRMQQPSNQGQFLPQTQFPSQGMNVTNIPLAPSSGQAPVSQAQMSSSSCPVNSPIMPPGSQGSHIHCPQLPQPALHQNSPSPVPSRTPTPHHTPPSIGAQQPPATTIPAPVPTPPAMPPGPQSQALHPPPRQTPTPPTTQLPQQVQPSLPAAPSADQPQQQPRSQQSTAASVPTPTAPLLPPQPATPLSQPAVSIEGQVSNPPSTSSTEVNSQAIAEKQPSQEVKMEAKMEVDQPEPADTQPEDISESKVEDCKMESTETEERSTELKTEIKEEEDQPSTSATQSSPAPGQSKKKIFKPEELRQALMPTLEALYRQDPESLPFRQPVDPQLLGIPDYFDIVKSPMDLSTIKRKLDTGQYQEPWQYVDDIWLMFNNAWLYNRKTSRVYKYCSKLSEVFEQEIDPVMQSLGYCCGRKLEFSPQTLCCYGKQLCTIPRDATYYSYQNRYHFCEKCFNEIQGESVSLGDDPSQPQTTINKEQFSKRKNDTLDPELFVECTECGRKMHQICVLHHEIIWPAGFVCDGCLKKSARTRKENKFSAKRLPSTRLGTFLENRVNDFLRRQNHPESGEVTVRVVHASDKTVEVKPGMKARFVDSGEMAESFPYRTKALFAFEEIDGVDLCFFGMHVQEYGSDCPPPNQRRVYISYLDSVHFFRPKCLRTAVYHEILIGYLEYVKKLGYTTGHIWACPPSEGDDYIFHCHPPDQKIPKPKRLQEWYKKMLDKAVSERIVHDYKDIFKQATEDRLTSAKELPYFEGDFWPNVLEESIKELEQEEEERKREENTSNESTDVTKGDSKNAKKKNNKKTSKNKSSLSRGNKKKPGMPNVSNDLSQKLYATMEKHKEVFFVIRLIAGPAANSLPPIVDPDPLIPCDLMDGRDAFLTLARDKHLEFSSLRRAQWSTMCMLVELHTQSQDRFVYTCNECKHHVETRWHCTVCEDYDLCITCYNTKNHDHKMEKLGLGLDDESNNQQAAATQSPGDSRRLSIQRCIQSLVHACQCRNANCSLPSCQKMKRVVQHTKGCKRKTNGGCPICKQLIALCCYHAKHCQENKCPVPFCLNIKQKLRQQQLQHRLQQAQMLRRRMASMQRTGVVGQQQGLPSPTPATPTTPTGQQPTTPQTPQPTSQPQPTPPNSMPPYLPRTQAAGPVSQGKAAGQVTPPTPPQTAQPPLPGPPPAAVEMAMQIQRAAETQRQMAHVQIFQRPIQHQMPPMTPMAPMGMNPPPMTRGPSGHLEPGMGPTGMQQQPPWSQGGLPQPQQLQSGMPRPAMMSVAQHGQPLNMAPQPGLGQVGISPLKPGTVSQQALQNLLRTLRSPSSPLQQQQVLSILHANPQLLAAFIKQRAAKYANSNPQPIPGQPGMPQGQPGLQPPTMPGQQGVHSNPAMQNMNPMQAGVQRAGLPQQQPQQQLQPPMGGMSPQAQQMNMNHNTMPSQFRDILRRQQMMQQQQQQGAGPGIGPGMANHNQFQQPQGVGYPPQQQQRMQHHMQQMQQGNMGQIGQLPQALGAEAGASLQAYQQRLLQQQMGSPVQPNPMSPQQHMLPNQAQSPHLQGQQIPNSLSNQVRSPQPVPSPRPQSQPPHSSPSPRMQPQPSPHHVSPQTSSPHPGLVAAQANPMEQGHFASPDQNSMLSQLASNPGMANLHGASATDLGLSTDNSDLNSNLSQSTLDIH
In order to characterize the inhibition kinetics of anacardic acid, filter-binding assays were done using constant amount of HeLa core histones in the presence or absence of AA with increasing concentrations of [3H]-acetyl CoA (see FIG. 3E). To visualize the radiolabeled acetylated histones, the reaction mixtures were resolved on 15% SDS-PAGE and processed for fluorography as described elsewhere (14).

p300 [3] = target: T2, p300; assay: In vitro p300 HAT-dependent transcription assay from chromatin template; type: biochemical; set-up: Full-length p300 was also purified from the recombinant baculovirus infected Sf21 cells as a His6-tagged protein; His6; made in house; host or cells: Sf21 insect cells (recombinant baculovirus)
Experimental: In Vitro Chromatin assembly: Chromatin template for in vitro transcription experiments was assembled and characterized as described earlier (8).
(§3) In Vitro Transcription Assay: Transcription assays were essentially carried out as described elsewhere (8), with minor modifications. The scheme of transcription is enumerated in FIG. 6A. Briefly, 30 ng of DNA/equivalent amount of chromatin template was incubated with 30 ng of activator (Gal4-VP16) in a buffer containing 4 mM HEPES (pH 7.8), 20 mM KCl, 2 mM DTT, 0.2 mM PMSF, 10 mM sodium butyrate, 0.1 mg/ml BSA, 2% glycerol (8). The activating compounds were added to the acetylation reaction along with p300 and acetyl-CoA, and incubated for 30 min. at 30° C. This was followed by addition of the p300 specific inhibitor Lysyl CoA (5 nom) to quench the acetylation reaction.
(§4) For inhibitors, the HAT p300 was pre-incubated with indicated amounts of inhibitor on ice for 20 min., following which it was added to the acetylation reaction in the transcription assay. […] The ^32P-radiolabeled transcript was extracted with phenol-chloroform, ethanol precipitated, dried pellet dissolved in loading dye (8 M Urea, 0.005% bromophenol blue and xylene cyanol) and analyzed on 5% urea-polyacrylamide gel. […] Quantification of transcription was done by Fuji BAS system. Quantitation of DNA and chromatin transcription data represents three independent experiments.
Target sequence in this assay (Q09472 whole entry): as above

[4] = test system: basal transcription machinery; assay: In vitro transcription assay from histone-free DNA template; type: biochemical, human; settings: compared to DMSO control
Experimental: as §3
as §4, with “assay. For the DNA transcription assays and chromatin transcription inhibition assays, the Lysyl CoA step was omitted.” for “assay.”

p300 [5] = target: T2, p300; settings: cited from earlier work
Target sequence in this assay (Q09472 whole entry, species assumed): as the sequence (Q09472 whole entry) above

T1 sequence (Q92831 whole entry): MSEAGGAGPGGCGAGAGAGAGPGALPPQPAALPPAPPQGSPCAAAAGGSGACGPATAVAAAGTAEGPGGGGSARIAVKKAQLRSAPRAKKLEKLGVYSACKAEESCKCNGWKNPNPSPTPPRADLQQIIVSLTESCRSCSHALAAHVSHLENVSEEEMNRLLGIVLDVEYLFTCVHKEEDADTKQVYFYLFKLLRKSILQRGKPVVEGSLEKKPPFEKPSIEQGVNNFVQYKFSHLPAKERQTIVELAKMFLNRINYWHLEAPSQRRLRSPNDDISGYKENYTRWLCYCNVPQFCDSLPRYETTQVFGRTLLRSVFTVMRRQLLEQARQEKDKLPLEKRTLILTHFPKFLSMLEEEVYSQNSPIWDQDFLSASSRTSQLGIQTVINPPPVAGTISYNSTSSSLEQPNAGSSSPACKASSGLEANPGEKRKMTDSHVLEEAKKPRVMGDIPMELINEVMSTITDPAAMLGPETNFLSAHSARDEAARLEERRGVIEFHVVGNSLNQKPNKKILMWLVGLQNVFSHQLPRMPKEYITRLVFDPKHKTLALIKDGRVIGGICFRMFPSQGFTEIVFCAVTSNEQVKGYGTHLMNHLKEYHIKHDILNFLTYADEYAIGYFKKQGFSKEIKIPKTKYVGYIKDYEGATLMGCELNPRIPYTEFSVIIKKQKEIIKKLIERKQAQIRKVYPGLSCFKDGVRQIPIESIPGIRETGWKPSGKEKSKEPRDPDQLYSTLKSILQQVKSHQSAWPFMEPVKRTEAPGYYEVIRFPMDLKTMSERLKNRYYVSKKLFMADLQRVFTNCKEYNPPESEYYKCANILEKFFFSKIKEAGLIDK

Compound: O=C(O)c1ccccc1 [benzoic acid]
inhibitory activity against histone acetyltransferases [1]: Neither salicylic acid nor benzoic acid shown any inhibitory activity

inhibition of HAT activity of PCAF (PCAF): inhibits | inhibitory activity towards p300 HAT activity (p300 [2]): inhibits | type of p300-HAT inhibition (double reciprocal plot 1/c.p.m. vs. 1/[Acetyl CoA]) (p300 [2]; increasing [3H]-acetyl CoA, constant amount of core histones): non-competitive | inhibitory activity towards p300 HAT activity (p300 [2]; listed as Anacardic acid): equally potent inhibitory activity | inhibition of p300 HAT activity dependent transcription from the chromatin template (p300 [3]): inhibits
Compound: CCCCCCCCCCCCCCCc1cccc(O)c1C(=O)O [anacardic acid, 2-hydroxy-6-pentadecylbenzoic acid]
effect on transcript levels from DNA template [4]: but not DNA transcription

increase in histone acetylation levels (p300 [2]): ~5 fold | enhancement of p300 HAT activity (p300 [2]; human core histones): specifically enhances | enhancement of levels of HAT-dependent transcription from chromatin template over DMSO control (p300 [3]; added with p300 and acetyl CoA, 30 min acetylation): 1.6 fold
Compound: CCCCCCCCCCCCCCCc1cccc(OCC)c1C(=O)Nc1ccc(Cl)c(C(F)(F)F)c1 [CTPB, N-(4-Chloro-3-trifluoromethyl-phenyl)-2-ethoxy-6-pentadecyl-benzamide]

Compound: O=C(O)c1ccccc1O [salicylic acid]
inhibitory activity against histone acetyltransferases [1]: Neither salicylic acid nor benzoic acid shown any inhibitory activity

Compound: Lys-CoA
inhibition of HAT activity of p300 (p300 [5]): specifically inhibit
